The text below walks through data of patent US9062124B2, “GIP-based mixed agonists for treatment of metabolic disorders and obesity” (priority 2008, dated 2015).

Common to all, as to type: cell-based
Assay [1] concerns the target T1, glucagon receptor (Homo sapiens, UniProt P47871).
T1 construct: expressed in transfected cells; host or cells: HEK293
As to the kind of experiment: cAMP synthesis functional assay (firefly luciferase reporter in HEK293 cells), glucagon receptor. Conditions: for Glucagon Receptor relative activity: relative to the native hormone of the indicated receptor. For orientation: Reporter assays use an easily measured gene product as a stand-in for the process of interest.

Assay [2] addresses T2, GLP-1 receptor (Homo sapiens, UniProt P43220).
T2 construct: expressed in transfected cells; host or cells: HEK293
As to the kind of experiment: cAMP synthesis functional assay (firefly luciferase reporter in HEK293 cells), GLP-1 receptor. As to conditions: for GLP-1 Receptor relative activity: Table 1, relative to the native hormone of the indicated receptor.

The target of assay [3] is T3, GIP receptor (Homo sapiens, UniProt P48546).
T3 construct: expressed in transfected cells; host or cells: HEK293
T3 sequence (P48546 22-466): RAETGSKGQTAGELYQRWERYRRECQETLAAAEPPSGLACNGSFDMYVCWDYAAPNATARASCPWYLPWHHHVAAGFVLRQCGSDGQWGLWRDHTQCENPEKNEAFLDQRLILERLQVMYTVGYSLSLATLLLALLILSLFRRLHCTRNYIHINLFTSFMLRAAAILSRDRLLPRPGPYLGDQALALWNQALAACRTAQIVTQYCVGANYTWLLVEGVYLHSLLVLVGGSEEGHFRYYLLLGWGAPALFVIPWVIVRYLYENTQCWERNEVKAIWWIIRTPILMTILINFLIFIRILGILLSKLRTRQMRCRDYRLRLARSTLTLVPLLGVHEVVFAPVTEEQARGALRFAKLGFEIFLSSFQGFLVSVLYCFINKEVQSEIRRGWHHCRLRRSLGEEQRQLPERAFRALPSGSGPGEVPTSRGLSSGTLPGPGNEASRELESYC
The experiment in a line: cAMP synthesis functional assay (firefly luciferase reporter in HEK293 cells), GIP receptor. As to conditions: Table 1; relative to the native hormone of the indicated receptor.

[4] abbreviates: Glucagon Receptor EC50, nM, Table 1.

Where a SMILES comes first, the peptide text is derived from it. Bridges are numbered along the chain shown (N, C = ends). Where no end group is shown, it is not given here. [ ]: non-standard residue; d: D form. PEG 40 kDa = PEG (40 kDa) covalently attached to Cys; PhLac = O=C(O)[C@@H](O)Cc1ccccc1; Aib = CC(C)(N)C(=O)O

T1 sequence (P47871 26-477): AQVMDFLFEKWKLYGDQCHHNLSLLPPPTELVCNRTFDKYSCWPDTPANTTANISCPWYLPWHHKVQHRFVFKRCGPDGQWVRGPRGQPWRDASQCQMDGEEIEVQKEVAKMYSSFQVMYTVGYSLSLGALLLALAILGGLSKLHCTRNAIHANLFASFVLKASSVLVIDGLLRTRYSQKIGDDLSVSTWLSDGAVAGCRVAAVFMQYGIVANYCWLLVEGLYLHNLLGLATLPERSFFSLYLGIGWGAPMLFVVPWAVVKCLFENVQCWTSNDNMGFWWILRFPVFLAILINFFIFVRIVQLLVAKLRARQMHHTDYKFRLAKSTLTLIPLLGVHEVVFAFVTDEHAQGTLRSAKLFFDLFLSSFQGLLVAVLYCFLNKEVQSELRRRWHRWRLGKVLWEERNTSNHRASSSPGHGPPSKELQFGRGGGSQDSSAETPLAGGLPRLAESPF
T2 sequence (P43220 24-463, species assumed): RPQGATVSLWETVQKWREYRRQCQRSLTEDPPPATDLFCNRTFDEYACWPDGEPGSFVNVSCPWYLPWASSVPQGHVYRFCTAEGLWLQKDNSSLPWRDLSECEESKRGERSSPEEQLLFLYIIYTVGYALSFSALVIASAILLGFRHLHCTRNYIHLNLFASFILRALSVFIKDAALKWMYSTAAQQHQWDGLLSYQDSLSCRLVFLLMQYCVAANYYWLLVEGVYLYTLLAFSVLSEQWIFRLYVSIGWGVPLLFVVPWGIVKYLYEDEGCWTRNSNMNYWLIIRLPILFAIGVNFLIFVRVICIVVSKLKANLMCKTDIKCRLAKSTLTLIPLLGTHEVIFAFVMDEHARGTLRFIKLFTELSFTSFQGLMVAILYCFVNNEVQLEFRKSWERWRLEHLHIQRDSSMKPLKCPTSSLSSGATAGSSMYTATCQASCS

Regarding `CC(C)C[C@H](NC(=O)[C@H](CC(C)C)NC(=O)[C@H](Cc1c[nH]c2ccccc12)NC(=O)[C@H](CC(N)=O)NC(=O)[C@@H](NC(=O)[C@H](Cc1ccccc1)NC(=O)[C@H](CCC(=O)O)NC(=O)[C@@H]1CCCCNC(=O)CC[C@H](NC(=O)[C@H](CC(=O)O)NC(=O)[C@H](CC(C)C)NC(=O)[C@H](Cc2ccc(O)cc2)NC(=O)[C@H](CCCCN)NC(=O)[C@H](CO)NC(=O)[C@H](Cc2ccc(O)cc2)NC(=O)[C@H](CC(=O)O)NC(=O)[C@H](CO)NC(=O)[C@@H](NC(=O)[C@H](Cc2ccccc2)NC(=O)[C@@H](NC(=O)CNC(=O)[C@H](CCC(N)=O)NC(=O)[C@H](CO)NC(=O)[C@@H](N)Cc2ccc(O)cc2)[C@@H](C)O)[C@@H](C)O)C(=O)N[C@@H](CCCNC(=N)N)C(=O)N[C@@H](CCCNC(=N)N)C(=O)N[C@@H](C)C(=O)N1)C(C)C)C(=O)N[C@@H](C)C(=O)NCC(=O)NCC(=O)N1CCC[C@H]1C(=O)N[C@@H](CO)C(=O)N[C@@H](CO)C(=O)NCC(=O)N[C@@H](C)C(=O)N1CCC[C@H]1C(=O)N1CCC[C@H]1C(=O)N1CCC[C@H]1C(=O)N[C@@H](CO)C(N)=O` [mt-143] (H-YSQGTFTSDYSKYLDERRAKEFVNWLLAGGPSSGAPPPS-NH2; lactam 16-20; N-terminus assumed), the “Glucagon Receptor relative activity” value in assay [1] (Table 1) amounted to 496.51%. Besides, in assay [2], the “GLP-1 Receptor relative activity” value is reported as 4.53%. Moreover, the “GIP Receptor relative activity” value in assay [3] was found to be 1.82%.
In turn, `CC(C)C[C@H](NC(=O)[C@H](CC(C)C)NC(=O)[C@H](Cc1c[nH]c2ccccc12)NC(=O)[C@H](CC(N)=O)NC(=O)[C@@H](NC(=O)[C@H](Cc1ccccc1)NC(=O)[C@H](CCC(=O)O)NC(=O)[C@@H]1CCCCNC(=O)CC[C@H](NC(=O)[C@H](CC(=O)O)NC(=O)[C@H](CC(C)C)NC(=O)[C@H](Cc2ccc(O)cc2)NC(=O)[C@H](CCCCN)NC(=O)[C@H](CO)NC(=O)[C@H](Cc2ccc(O)cc2)NC(=O)[C@H](CC(=O)O)NC(=O)[C@H](CO)NC(=O)[C@@H](NC(=O)[C@H](Cc2ccccc2)NC(=O)[C@@H](NC(=O)CNC(=O)[C@H](CCC(N)=O)NC(=O)[C@H](CO)NC(=O)[C@@H](N)Cc2ccc(O)cc2)[C@@H](C)O)[C@@H](C)O)C(=O)N[C@@H](CCC(N)=O)C(=O)N[C@@H](C)C(=O)N[C@@H](C)C(=O)N1)C(C)C)C(=O)N[C@@H](C)C(=O)NCC(=O)NCC(=O)N1CCC[C@H]1C(=O)N[C@@H](CO)C(=O)N[C@@H](CO)C(=O)NCC(=O)N[C@@H](C)C(=O)N1CCC[C@H]1C(=O)N1CCC[C@H]1C(=O)N1CCC[C@H]1C(=O)N[C@@H](CO)C(N)=O` [mt-127] (H-YSQGTFTSDYSKYLDEQAAKEFVNWLLAGGPSSGAPPPS-NH2; lactam 16-20; N-terminus assumed) returned an EC50 in assay [1] (setting [4]) of 0.044 nM. In addition, the “Glucagon Receptor relative activity” value in assay [1] (Table 1) worked out at 718.39%. Besides, the “GLP-1 Receptor relative activity” value in assay [2] was 87.75%. Besides, the “GIP Receptor relative activity” value in assay [3] amounted to 10.51%.
Turning to “YAPGTFISDYSIAMDKIHQQDFVCWLLAQKGKKNWLKHNITQ-NH2 [mt-104]”, in assay [3], the “GIP Receptor relative activity” value was 0.22%.
For “YAPGTFISDYSIAMDKIHQQDFVNWLLAQKGKKNWLKHNITQ-NH2 [mt-101]”, the “GIP Receptor relative activity” value in assay [3] was 0.06%.
`CC[C@H](C)[C@@H]1NC(=O)[C@@H](NC(=O)[C@H](CC(=O)O)NC(=O)[C@H](CC(C)C)NC(=O)[C@H](Cc2ccc(O)cc2)NC(=O)[C@H](CCCCN)NC(=O)[C@H](CO)NC(=O)[C@H](Cc2ccc(O)cc2)NC(=O)[C@H](CC(=O)O)NC(=O)[C@H](CO)NC(=O)[C@@H](NC(=O)[C@@H](O)Cc2ccccc2)[C@@H](C)O)CCC(=O)NCCCC[C@@H](C(=O)N[C@@H](CC(=O)O)C(=O)N[C@@H](Cc2ccccc2)C(=O)N[C@H](C(=O)N[C@@H](CC(N)=O)C(=O)N[C@@H](Cc2c[nH]c3ccccc23)C(=O)N[C@@H](CC(C)C)C(=O)N[C@@H](CC(C)C)C(=O)N[C@@H](C)C(=O)N[C@@H](CCC(N)=O)C(N)=O)C(C)C)NC(=O)[C@H](CCC(N)=O)NC(=O)[C@H](Cc2c[nH]cn2)NC1=O` [mt-114] (H-[PhLac]TSDYSKYLDEIHQKDFVNWLLAQ-NH2; lactam 11-15): the “Glucagon Receptor relative activity” value in assay [1] (Table 1) was 0.28%. In addition, the “GLP-1 Receptor relative activity” value in assay [2] was found to be 0.05%.
With `CC[C@H](C)[C@H](NC(=O)[C@H](CO)NC(=O)[C@H](Cc1ccc(O)cc1)NC(=O)[C@H](CC(=O)O)NC(=O)[C@H](CO)NC(=O)[C@@H](NC(=O)[C@H](Cc1ccccc1)NC(=O)[C@@H](NC(=O)CN)[C@@H](C)O)[C@@H](C)O)C(=O)N[C@@H](Cc1ccc(O)cc1)C(=O)N[C@@H](CC(C)C)C(=O)N[C@@H](CC(=O)O)C(=O)N[C@H]1CCC(=O)NCCCC[C@@H](C(=O)N[C@@H](CCC(=O)O)C(=O)N[C@@H](Cc2ccccc2)C(=O)N[C@H](C(=O)N[C@@H](CC(N)=O)C(=O)N[C@@H](Cc2c[nH]c3ccccc23)C(=O)N[C@@H](CC(C)C)C(=O)N[C@@H](CC(C)C)C(=O)N[C@@H](C)C(=O)NCC(N)=O)C(C)C)NC(=O)[C@H](C)NC(=O)[C@H](C)NC(=O)[C@H](CCC(N)=O)NC1=O` [mt-197] (H-GTFTSDYSIYLDEQAAKEFVNWLLAG-NH2; lactam 13-17; N-terminus assumed), in assay [1] (Table 1), the “Glucagon Receptor relative activity” value came to 0.13%. In addition, the “GLP-1 Receptor relative activity” value in assay [2] came out at 0.07%.
As to “HSQGTFTSDYSKYLDKIHQEEFIAWLMNT-NH2 [mt-68]”, the EC50 in assay [1] (setting [4]) came out at 1.97 nM. Further, the “Glucagon Receptor relative activity” value in assay [1] (Table 1) is listed as 13.20%. Further, the “GLP-1 Receptor relative activity” value in assay [2] was found to be 6.10%.
With `CC[C@H](C)[C@H](NC(=O)[C@H](CO)NC(=O)[C@H](Cc1ccc(O)cc1)NC(=O)[C@H](CC(=O)O)NC(=O)[C@H](CO)NC(=O)[C@@H](NC(=O)[C@H](Cc1ccccc1)NC(=O)[C@@H](NC(=O)CNC(=O)[C@H](CCC(=O)O)NC(=O)C(C)(C)NC(=O)[C@@H](N)Cc1ccc(O)cc1)[C@@H](C)O)[C@@H](C)O)C(=O)N[C@@H](Cc1ccc(O)cc1)C(=O)N[C@@H](CC(C)C)C(=O)N[C@@H](CC(=O)O)C(=O)N[C@@H](CCCCN)C(=O)N[C@@H](CCC(N)=O)C(=O)N[C@@H](C)C(=O)N[C@@H](C)C(=O)NC(C)(C)C(=O)N[C@@H](CCC(=O)O)C(=O)N[C@@H](Cc1ccccc1)C(=O)N[C@H](C(=O)N[C@@H](CCCCN)C(=O)N[C@@H](Cc1c[nH]c2ccccc12)C(=O)N[C@@H](CC(C)C)C(=O)N[C@@H](CC(C)C)C(=O)N[C@@H](C)C(=O)NCC(=O)NCC(=O)N1CCC[C@H]1C(=O)N[C@@H](CO)C(=O)N[C@@H](CO)C(=O)NCC(=O)N[C@@H](C)C(=O)N1CCC[C@H]1C(=O)N1CCC[C@H]1C(=O)N1CCC[C@H]1C(=O)N[C@@H](CO)C(N)=O)C(C)C` [mt-268], the EC50 in assay [1] (Glucagon Receptor EC50, cAMP luciferase reporter assay as in Example 16) was determined as 6.5 nM; in assay [2] (GLP-1 Receptor EC50, cAMP luciferase reporter assay as in Example 16), 0.0155 nM.
With “YAEGTFISDYSIAMDKIHQQDFVNWLLAQ-NH2 [mt-106]”, the “Glucagon Receptor relative activity” value in assay [1] (Table 1) is listed as 0.11%. Moreover, in assay [2], the “GLP-1 Receptor relative activity” value is reported as 0.02%.
In the case of “mt-208: glucagon analog peptide, C-terminal amide (Y[Aib]EGTFTSDYSIYLDEQAAKEFVNWLLAGKGKKNWLKHNITQC(PEG 40 kDa)-NH2; lactam 16-20)”, the “GLP-1 Receptor relative activity” value in assay [2] was 11.83%. Further, the “GIP Receptor relative activity” value in assay [3] was 4.79%.
As for `CC[C@H](C)[C@H](NC(=O)[C@H](CO)NC(=O)[C@H](Cc1ccc(O)cc1)NC(=O)[C@H](CC(=O)O)NC(=O)[C@H](CO)NC(=O)[C@@H](NC(=O)[C@H](Cc1ccccc1)NC(=O)[C@@H](NC(=O)CNC(=O)[C@H](CCC(=O)O)NC(=O)[C@H](C)NC(=O)[C@@H](N)Cc1ccc(O)cc1)[C@@H](C)O)[C@@H](C)O)C(=O)N[C@@H](Cc1ccc(O)cc1)C(=O)N[C@@H](CCSC)C(=O)N[C@@H](CC(=O)O)C(=O)N[C@H]1CCC(=O)NCCCC[C@@H](C(=O)N[C@@H](CCC(=O)O)C(=O)N[C@@H](Cc2ccccc2)C(=O)N[C@H](C(=O)N[C@@H](CC(N)=O)C(=O)N[C@@H](Cc2c[nH]c3ccccc23)C(=O)N[C@@H](CC(C)C)C(=O)N[C@@H](CC(C)C)C(=O)N[C@@H](C)C(=O)NCC(=O)NCC(=O)N2CCC[C@H]2C(=O)N[C@@H](CO)C(=O)N[C@@H](CO)C(=O)NCC(=O)N[C@@H](C)C(=O)N2CCC[C@H]2C(=O)N2CCC[C@H]2C(=O)N2CCC[C@H]2C(=O)N[C@@H](CO)C(N)=O)C(C)C)NC(=O)[C@H](C)NC(=O)[C@H](C)NC(=O)[C@H](CCC(N)=O)NC1=O` [mt-142] (H-YAEGTFTSDYSIYMDEQAAKEFVNWLLAGGPSSGAPPPS-NH2; lactam 16-20; N-terminus assumed), in assay [2], the “GLP-1 Receptor relative activity” value is on record as 163.41%. Besides, in assay [3], the “GIP Receptor relative activity” value was 36.36%.

The term EC50 denotes the concentration needed to bring the measured effect to its halfway point. Higher therefore signals a less potent agent.
